Reference: ChEMBL document CHEMBL1201862, “PubChem BioAssay data set” (2004)
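Test compounds were applied to cells in 96-well plates for 48 hours at 5 doses. Abbreviation: GI50, concentration required for 50% inhibition of growth.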 The source made the active and inactive calls. No stated cut-off is given here; in the data, active = GI50 up to about 1.1 µM and inactive = higher.

Experiments:
Assay in all cases: DTP human tumour cell line panel, 48 h
SF-268 = tested on: SF-268
COLO 205 = tested on: COLO 205
HCT-116 = tested on: HCT-116
TK-10 = tested on: TK-10
OVCAR-5 = tested on: OVCAR-5
UACC-62 = tested on: UACC-62
HL-60 = tested on: HL-60
SN12C = tested on: SN12C
HCC 2998 = tested on: HCC 2998
SW-620 = tested on: SW-620
OVCAR-8 = tested on: OVCAR-8
NCI-H460 = tested on: NCI-H460
CAKI-1 = tested on: CAKI-1
MDA-N = tested on: MDA-N
UO-31 = tested on: UO-31
ACHN = tested on: ACHN
Malme-3M = tested on: Malme-3M
IGROV-1 = tested on: IGROV-1
EKVX = tested on: EKVX
CCRF-CEM = tested on: CCRF-CEM

Measured: GI50

C[C@]12C=CC(=O)C=C1CC[C@@H]1[C@@H]2C(=O)C[C@@]2(C)[C@H]1CC[C@]2(O)C(=O)CO [PREDNISONE]
inactive: SF-268 > 100 µM | COLO 205 > 100 µM | HCT-116 59.8 µM | TK-10 > 100 µM | OVCAR-5 > 100 µM | UACC-62 > 100 µM | HL-60 > 100 µM | SN12C > 100 µM | HCC 2998 > 100 µM | SW-620 > 100 µM | OVCAR-8 > 100 µM | NCI-H460 > 100 µM | CAKI-1 > 100 µM | MDA-N > 100 µM | UO-31 > 100 µM | ACHN > 100 µM | Malme-3M > 100 µM | IGROV-1 > 100 µM | EKVX > 100 µM | CCRF-CEM > 100 µM
